Calls of active or inactive are those of the source. The calls are words filed in the database; no cut-off is given here.
How the values were obtained:
Escherichia coli = test: Antibacterial activity against Escherichia coli assessed as growth inhibition at 0.5 umol at 37 degC after 24 hrs by agar diffusion assay; assay type: functional, organism-based
Brevibacillus brevis [1] = test: Antibacterial activity against Bacillus brevis NCCB 89173 assessed as growth inhibition at 0.5 umol at 37 degC after 24 hrs by agar diffusion assay; assay type: functional, organism-based
Bacillus subtilis [2] = test: Antibacterial activity against Bacillus subtilis NCCB 1089 assessed as growth inhibition at 0.5 umol at 37 degC after 24 hrs by agar diffusion assay; assay type: functional, organism-based
Cladosporium cucumerinum = test: Antibacterial activity against Cladosporium cucumerinum CBS 177.54 assessed as growth inhibition at 0.5 umol at 18 degC after 3 to 5 days by agar diffusion assay; assay type: functional, organism-based
Saccharomyces cerevisiae = test: Antibacterial activity against Saccharomyces cerevisiae assessed as growth inhibition at 0.5 umol at 26 degC after 24 hrs by agar diffusion assay; assay type: functional, organism-based
Bacillus pumilus [3] = test: Antibacterial activity against Bacillus pumilus assessed as growth inhibition at 0.5 umol at 26 degC after 24 hrs by agar diffusion assay; assay type: functional, organism-based
Bacillus pumilus [4] = test: Antibacterial activity against Bacillus pumilus assessed as diameter of growth inhibition zone at 0.5 umol at 26 degC after 24 hrs by agar diffusion assay; assay type: functional
Bacillus subtilis [5] = test: Antibacterial activity against Bacillus subtilis NCCB 1089 assessed as diameter of growth inhibition zone at 0.5 umol at 37 degC after 24 hrs by agar diffusion assay; assay type: functional
Brevibacillus brevis [6] = test: Antibacterial activity against Bacillus brevis NCCB 89173 assessed as diameter of growth inhibition zone at 0.5 umol at 37 degC after 24 hrs by agar diffusion assay; assay type: functional

| Structure (SMILES) | growth inhibition (GI) (Escherichia coli) | growth inhibition (GI) (Brevibacillus brevis [1]) | growth inhibition (GI) (Bacillus subtilis [2]) | growth inhibition (GI) (Cladosporium cucumerinum) | growth inhibition (GI) (Saccharomyces cerevisiae) | growth inhibition (GI) (Bacillus pumilus [3]) | diameter of the inhibition zone (DIZ) (Bacillus pumilus [4]) | diameter of the inhibition zone (DIZ) (Bacillus subtilis [5]) | diameter of the inhibition zone (DIZ) (Brevibacillus brevis [6]) |
| --- | --- | --- | --- | --- | --- | --- | --- | --- | --- |
| C[C@@H](O)[C@H](NC(=O)c1cc2c([nH]c3ccc(O)cc32)c(CCC(=O)N2CCC[C@H]2C(=O)O)n1)C(=O)O | inactive | inactive | inactive | inactive | inactive | inactive | – | – | – |
| NCCC[C@H](N)CC(=O)N[C@@H]1[C@@H](O)[C@H](OC(N)=O)[C@@H](CO)O[C@H]1/N=C1\N[C@@H]2[C@H](O)CNC(=O)[C@H]2N1 [NOURSEOTHRICIN] | – | – | – | – | – | – | 25 mm | 14 mm | 25 mm |

From ChEMBL document CHEMBL2331258, “HR-MALDI-MS imaging assisted screening of β-carboline alkaloids discovered from Mycena metata” (2013)
